Blank lines part the entries; values can stand above or below the compound they belong to. Active and inactive are the calls of the source. The rule behind the calls is not given here.
Key:
Cavia porcellus [1] = species on record: Cavia porcellus; experiment: The inhibitory concentration of compound on guinea pig portal vein; format: functional
Cavia porcellus [2] = species on record: Cavia porcellus; experiment: The inhibitory concentration of compound on guinea pig bladder strips; format: functional
Rattus norvegicus [3] = species on record: Rattus norvegicus; experiment: In vitro inhibitory concentration for 50% vasorelaxant effect was measured on rat aorta strips; format: functional
[4] = Inhibition of glyburide binding to K-ATP potassium channel; Inactive
Rattus norvegicus [5] = species on record: Rattus norvegicus; experiment: The effective dose for relaxation was measured on rat aorta rings; format: functional; conditions: read-out: ED50 (the source's name)
Rattus norvegicus [6] = species on record: Rattus norvegicus; experiment: The percentage of residual insulin release at 50 uM of compound in the presence of glucose on rat pancreatic beta cells; format: functional
[7] = Inhibition of currents and prolonged action potential duration in human atrial myocytes; format: functional, Cardiac atrium
[8] = target: T1, Potassium voltage-gated channel subfamily A member 5 (Homo sapiens, UniProt P22460); experiment: (§1) Inhibition of voltage-gated potassium channel subunit Kv1.5
T1 sequence (P22460 whole entry): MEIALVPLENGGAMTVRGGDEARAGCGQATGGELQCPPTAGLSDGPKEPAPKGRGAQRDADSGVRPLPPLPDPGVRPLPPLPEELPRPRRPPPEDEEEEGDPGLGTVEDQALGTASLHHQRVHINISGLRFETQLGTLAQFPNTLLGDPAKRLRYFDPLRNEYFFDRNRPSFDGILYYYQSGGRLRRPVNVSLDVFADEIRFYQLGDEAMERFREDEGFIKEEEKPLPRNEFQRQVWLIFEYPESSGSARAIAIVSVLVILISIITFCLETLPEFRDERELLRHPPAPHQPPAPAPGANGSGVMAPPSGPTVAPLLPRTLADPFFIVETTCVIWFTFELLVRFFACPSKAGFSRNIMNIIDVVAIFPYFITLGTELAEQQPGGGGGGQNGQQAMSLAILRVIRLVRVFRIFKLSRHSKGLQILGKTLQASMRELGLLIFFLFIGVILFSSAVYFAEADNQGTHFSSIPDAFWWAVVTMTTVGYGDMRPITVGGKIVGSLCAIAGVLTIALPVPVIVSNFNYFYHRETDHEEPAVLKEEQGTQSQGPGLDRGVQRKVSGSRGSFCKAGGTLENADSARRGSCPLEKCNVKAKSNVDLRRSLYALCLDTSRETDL

[9] = target: T1, Potassium voltage-gated channel subfamily A member 5; experiment: as §1; format: functional
Rattus norvegicus [10] = species on record: Rattus norvegicus; experiment: Antagonistic activity in the rat thoracic aorta; format: functional
Cavia porcellus [11] = species on record: Cavia porcellus; experiment: The inhibitory concentration for 50% was measured on guinea pig bladder strips; format: functional
[12] = target: T2, Sulfonylurea receptor 2, Kir6.2 (Homo sapiens, UniProt O60706+Q14654); experiment: Inhibition of human SUR2A/Kir6.2 expressed in Xenopus oocytes; format: cell-based, Oocyte
T2 sequence (Q14654 whole entry): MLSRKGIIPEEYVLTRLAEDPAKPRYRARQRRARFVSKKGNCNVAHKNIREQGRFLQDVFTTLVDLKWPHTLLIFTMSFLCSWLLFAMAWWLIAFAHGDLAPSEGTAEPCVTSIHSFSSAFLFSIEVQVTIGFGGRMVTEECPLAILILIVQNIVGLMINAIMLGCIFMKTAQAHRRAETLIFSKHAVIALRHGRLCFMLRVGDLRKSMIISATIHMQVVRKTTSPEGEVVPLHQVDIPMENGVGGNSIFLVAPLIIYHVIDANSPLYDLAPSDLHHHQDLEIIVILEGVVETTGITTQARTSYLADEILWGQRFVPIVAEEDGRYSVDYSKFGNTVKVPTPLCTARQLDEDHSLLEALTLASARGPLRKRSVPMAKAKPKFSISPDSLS
T2 sequence (O60706 whole entry): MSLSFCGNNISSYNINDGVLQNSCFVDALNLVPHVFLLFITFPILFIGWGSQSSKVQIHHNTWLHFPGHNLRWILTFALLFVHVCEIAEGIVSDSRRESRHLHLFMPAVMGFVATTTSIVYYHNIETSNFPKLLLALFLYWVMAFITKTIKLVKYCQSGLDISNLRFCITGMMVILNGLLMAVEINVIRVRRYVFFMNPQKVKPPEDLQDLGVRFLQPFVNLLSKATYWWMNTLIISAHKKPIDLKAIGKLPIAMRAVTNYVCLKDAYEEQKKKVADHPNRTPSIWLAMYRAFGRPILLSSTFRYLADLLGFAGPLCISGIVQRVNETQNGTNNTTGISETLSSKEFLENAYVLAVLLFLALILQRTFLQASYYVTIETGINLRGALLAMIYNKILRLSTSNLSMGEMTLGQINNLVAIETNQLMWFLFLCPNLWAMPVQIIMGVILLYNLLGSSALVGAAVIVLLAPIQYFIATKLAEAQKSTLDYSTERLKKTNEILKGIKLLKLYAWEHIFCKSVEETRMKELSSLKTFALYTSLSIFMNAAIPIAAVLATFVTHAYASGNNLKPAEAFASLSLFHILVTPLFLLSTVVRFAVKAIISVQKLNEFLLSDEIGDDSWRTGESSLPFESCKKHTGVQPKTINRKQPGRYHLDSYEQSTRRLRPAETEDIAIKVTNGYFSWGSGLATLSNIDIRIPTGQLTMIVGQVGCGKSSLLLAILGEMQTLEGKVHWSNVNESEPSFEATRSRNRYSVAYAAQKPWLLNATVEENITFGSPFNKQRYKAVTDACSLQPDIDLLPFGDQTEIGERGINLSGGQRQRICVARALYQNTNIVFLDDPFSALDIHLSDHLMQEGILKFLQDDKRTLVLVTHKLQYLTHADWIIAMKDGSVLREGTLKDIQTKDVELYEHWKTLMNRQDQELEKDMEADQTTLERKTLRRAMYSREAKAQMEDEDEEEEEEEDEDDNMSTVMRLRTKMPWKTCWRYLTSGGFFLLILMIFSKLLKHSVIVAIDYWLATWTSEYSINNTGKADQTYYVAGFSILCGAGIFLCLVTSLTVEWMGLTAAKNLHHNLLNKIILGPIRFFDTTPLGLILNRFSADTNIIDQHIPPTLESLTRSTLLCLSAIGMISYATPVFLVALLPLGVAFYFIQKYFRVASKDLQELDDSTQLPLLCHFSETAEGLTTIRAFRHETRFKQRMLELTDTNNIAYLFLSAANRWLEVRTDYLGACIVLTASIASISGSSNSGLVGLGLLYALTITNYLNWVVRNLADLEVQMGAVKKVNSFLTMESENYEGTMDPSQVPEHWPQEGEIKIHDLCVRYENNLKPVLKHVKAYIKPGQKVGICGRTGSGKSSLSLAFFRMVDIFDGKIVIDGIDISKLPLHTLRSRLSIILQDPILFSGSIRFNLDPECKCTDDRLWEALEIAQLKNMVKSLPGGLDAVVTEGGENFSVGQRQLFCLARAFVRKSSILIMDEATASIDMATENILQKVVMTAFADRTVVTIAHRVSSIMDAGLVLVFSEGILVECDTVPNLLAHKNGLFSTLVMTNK

Cavia porcellus [13] = species on record: Cavia porcellus; experiment: The inhibitory concentration for 50% was measured on guinea pig cardiomyocytes; format: functional
[14] = target: Sulfonylurea receptor 1, Kir6.2 (Homo sapiens, UniProt Q09428+Q14654); experiment: Inhibition of human SUR1/Kir6.2 expressed in CHO cells; format: cell-based
Sulfonylurea receptor 1, Kir6.2, sequence (Q14654 whole entry): as the sequence (Q14654 whole entry) above
Sulfonylurea receptor 1, Kir6.2, sequence (Q09428 whole entry): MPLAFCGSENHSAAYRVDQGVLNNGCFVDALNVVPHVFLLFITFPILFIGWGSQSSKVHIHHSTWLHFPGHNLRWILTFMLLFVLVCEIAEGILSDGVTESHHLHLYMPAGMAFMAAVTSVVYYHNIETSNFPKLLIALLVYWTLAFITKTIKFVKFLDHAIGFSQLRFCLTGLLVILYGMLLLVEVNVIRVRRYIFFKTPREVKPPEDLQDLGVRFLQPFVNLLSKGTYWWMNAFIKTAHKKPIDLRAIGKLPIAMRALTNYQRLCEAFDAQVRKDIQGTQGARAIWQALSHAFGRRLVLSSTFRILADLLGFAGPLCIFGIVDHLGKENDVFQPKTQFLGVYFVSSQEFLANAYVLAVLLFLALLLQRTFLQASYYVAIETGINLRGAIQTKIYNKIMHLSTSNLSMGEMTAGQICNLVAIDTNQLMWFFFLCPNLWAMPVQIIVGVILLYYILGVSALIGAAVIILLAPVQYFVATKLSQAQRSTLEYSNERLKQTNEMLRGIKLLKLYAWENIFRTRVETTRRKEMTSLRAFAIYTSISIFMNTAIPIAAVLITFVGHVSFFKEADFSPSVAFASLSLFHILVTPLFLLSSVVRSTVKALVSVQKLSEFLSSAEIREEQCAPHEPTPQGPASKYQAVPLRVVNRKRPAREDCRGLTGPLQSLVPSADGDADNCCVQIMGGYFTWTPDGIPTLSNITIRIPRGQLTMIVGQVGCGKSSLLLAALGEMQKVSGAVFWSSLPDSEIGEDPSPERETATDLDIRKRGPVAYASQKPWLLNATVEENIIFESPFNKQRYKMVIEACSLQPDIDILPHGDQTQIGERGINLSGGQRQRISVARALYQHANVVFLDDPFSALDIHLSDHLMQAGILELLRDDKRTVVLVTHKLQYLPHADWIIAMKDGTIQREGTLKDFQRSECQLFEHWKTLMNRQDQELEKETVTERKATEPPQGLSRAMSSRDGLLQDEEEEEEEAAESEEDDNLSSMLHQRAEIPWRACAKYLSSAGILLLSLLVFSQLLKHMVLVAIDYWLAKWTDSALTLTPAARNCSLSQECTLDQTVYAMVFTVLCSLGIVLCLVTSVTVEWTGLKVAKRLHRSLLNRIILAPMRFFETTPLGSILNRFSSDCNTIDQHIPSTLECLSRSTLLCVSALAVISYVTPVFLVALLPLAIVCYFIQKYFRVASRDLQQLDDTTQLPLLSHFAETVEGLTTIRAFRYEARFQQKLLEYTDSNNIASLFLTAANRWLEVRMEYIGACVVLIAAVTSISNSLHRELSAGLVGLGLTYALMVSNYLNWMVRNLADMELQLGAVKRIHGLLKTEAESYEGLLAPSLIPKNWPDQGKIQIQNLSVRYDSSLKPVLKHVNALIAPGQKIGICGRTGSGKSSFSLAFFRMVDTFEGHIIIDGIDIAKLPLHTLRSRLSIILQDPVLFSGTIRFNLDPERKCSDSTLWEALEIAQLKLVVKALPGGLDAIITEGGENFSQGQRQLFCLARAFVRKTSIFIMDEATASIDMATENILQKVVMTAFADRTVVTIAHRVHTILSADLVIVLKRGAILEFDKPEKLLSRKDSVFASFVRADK

[15] = The inhibitory concentration for 50% was measured on the rat insulinoma cell line RIN-m5F; format: functional
[16] = target: T3, Small conductance calcium-activated potassium channel protein 1 (Homo sapiens, UniProt Q92952); experiment: Inhibition of hSK1 calcium activated potassium channel (SKCa channel); Range is 1-2
T3 sequence (Q92952 whole entry): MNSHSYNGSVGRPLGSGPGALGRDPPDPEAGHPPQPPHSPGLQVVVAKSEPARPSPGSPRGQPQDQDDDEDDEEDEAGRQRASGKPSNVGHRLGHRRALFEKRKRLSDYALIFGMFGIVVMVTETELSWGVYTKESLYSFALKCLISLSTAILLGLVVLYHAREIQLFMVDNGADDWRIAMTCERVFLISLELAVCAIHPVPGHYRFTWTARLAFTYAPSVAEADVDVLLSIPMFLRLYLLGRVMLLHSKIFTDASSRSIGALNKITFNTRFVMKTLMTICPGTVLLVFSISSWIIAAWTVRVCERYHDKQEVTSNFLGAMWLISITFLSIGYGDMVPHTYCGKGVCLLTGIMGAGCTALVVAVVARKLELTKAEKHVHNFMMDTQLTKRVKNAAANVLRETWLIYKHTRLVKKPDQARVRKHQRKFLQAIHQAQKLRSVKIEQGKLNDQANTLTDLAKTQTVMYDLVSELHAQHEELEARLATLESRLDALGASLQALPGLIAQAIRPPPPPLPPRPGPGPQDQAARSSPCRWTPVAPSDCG

[17] = Inhibition of Kir6.1/SUR1 potassium channel K-ATP; set-up: species or system Homo sapiens
Rattus norvegicus [18] = species on record: Rattus norvegicus; experiment: The effective concentration (EC25) was measured for anti-ischemic activity on perfused rat hearts; format: functional
[19] = EC25 and IC50 Ratio of the compound; format: functional; set-up: reference not given here
Rattus norvegicus [20] = species on record: Rattus norvegicus; experiment: The inhibitory concentration (IC50) for vasorelaxation on rat aorta; format: functional
[21] = Inhibition of glyburide binding to K-ATP potassium channel
Cavia porcellus [22] = species on record: Cavia porcellus; experiment: The inhibitory concentration was measured on guinea pig cardiomyocytes; format: functional
Rattus norvegicus [23] = species on record: Rattus norvegicus; experiment: The inhibitory concentration was measured on the rat insulinoma cell line RIN-m5F; format: functional
Cavia porcellus [24] = species on record: Cavia porcellus; experiment: The effective dose to inhibit 50% was measured on guinea pig; format: functional
Cavia porcellus [25] = species on record: Cavia porcellus; experiment: The effective dose to inhibit 20% was measured on guinea pig; format: functional
Cavia porcellus [26] = species on record: Cavia porcellus; experiment: Relaxation of guinea pig bladder strips when contracted with 20 mM KCl; format: functional
[27] = target: Voltage-gated potassium channel, IKs; KCNQ1(Kv7.1)/KCNE1(MinK) (Homo sapiens, UniProt P15382+P51787); experiment: Inhibition of Iks current KvLQT1 potassium channel; format: protein-complex assay
[28] = target: Gardos channel, KCNN4/IK1 (Homo sapiens); experiment: Selectivity for gardos channel; (Gardos channel vs 2000 nM for the cardiac IKs channel).)
[29] = target: T3, Small conductance calcium-activated potassium channel protein 1; experiment: Inhibition of hSK1 calcium activated potassium channel (SKCa channel)
[30] = target: T1, Potassium voltage-gated channel subfamily A member 5; experiment: The inhibitory concentration for 50% was measured on cation flux
Rattus norvegicus [31] = species on record: Rattus norvegicus; experiment: Antagonistic activity (pKb) was measured in the rat thoracic aorta; format: functional
[32] = In vitro reduction of glutamate release in hippocampal slices; format: functional, tissue-based; conditions: Rattus norvegicus, Hippocampus
[33] = target: T2, Sulfonylurea receptor 2, Kir6.2; experiment: (§2) Inhibition of SUR2B/Kir6.2; format: protein-complex assay
[34] = target: T2, Sulfonylurea receptor 2, Kir6.2; experiment: as §2; format: protein-complex assay, Rattus norvegicus
Rattus norvegicus [35] = species on record: Rattus norvegicus; experiment: The effective concentration was measured on rat aorta strips; format: functional
Rattus norvegicus [36] = species on record: Rattus norvegicus; experiment: The inhibitory concentration for 50% was measured on rat aorta strips; format: functional

SMILES: CC(C)(C)O/N=C(\c1cc(Br)c(F)cc1O)c1c(O)ccc[n+]1[O-]
IC50 (Rattus norvegicus [3]): 0.28 µM

SMILES: C[C@@H](N/C(=N/C#N)Nc1cccnc1)c1ccccc1
NA [4]: inactive

SMILES: C=CCN(C1=NCCN1)c1c(Cl)cccc1Cl [ALINIDINE]
pKb (Rattus norvegicus [10]): 5.5

SMILES: c1ccc2c(c1)c1cc[n+]2CCCCC[n+]2ccc(c3ccccc32)NCCCCCN1
IC50 [16]: 0.001 µM

SMILES: CC[C@@H](N/C(=N/C#N)Nc1cccnc1)c1ccccc1
NA [4]: inactive

SMILES: CC(NC1=NS(=O)(=O)c2cnccc2N1)C(C)(C)C (stereo not drawn)
EC50 (Rattus norvegicus [5]): 154 µM | Insulin release (Rattus norvegicus [6]): 7.1%

SMILES: CC(C)CN(CC(C)C)S(=O)(=O)c1ccc2c(c1)[C@@H](/N=C(\NC#N)Nc1ccc(Cl)cc1)[C@H](O)C(C)(C)O2
EC25 (Rattus norvegicus [18]): 0.04 µM | Ratio [19]: < 0.004

SMILES: CC1(C)Oc2ccc(C#N)cc2[C@H](N(Cc2ncc[nH]2)c2ccc(Cl)cc2)[C@H]1O [BMS-191095]
IC50 (Rattus norvegicus [20]): > 30 µM | EC25 (Rattus norvegicus [18]): 1.4 µM | Ratio [19]: < 0.05

SMILES: CC1(C)Oc2ccc(C#N)cc2[C@H](N2CCCC2=O)[C@H]1O [(-)-CROMAKALIM]
IC50 (Rattus norvegicus [20]): 0.032 µM | EC25 (Rattus norvegicus [18]): 8.9 µM | Ratio [19]: 278

SMILES: Cc1cc(-c2ccc3c(c2)[C@@H](NC(=O)c2cccnc2)[C@H](O)C(C)(C)O3)ccn1
ED50 (Cavia porcellus [24]): 0.08 µg/kg | ED20 (Cavia porcellus [25]): 100 µg/kg

SMILES: c1cc2cc(c1)C[n+]1ccc(c3ccccc31)NCc1ccc(cc1)CNc1cc[n+](c3ccccc13)C2
IC50 [29]: 0.003 µM

SMILES: Fc1ccc(CN(C2=NCCN2)c2c(Cl)cccc2Cl)cc1
pKb (Rattus norvegicus [31]): 7.1

SMILES: CC1(C)Oc2ccc(C#N)cc2[C@@H](/N=C(\NC#N)Nc2ccc(Cl)cc2)[C@@H]1O
EC25 (Rattus norvegicus [18]): 2.5 µM | Ratio [19]: 1.4

SMILES: CNC(=S)C1(C(=O)c2ccc(-n3ccnc3)cc2)CCC1
Kd [33]: 8.5 µM | Kd [34]: 5.2 µM | EC50 (Rattus norvegicus [35]): 5.3 µM | IC50 (Rattus norvegicus [36]): 12 µM

More lines, main results first:

IC50 (Cavia porcellus [1]): 0.75 µM | IC50 (Cavia porcellus [2]): 4.2 µM
SMILES: N#Cc1cccc(C2C3=C(CCCC3=O)NC3=C2C(=O)CCC3)c1

EC50 (Rattus norvegicus [5]): 7.5 µM
SMILES: CC(NC1=NS(=O)(=O)c2cccnc2N1)C(C)(C)C (stereo not drawn)
Insulin release (Rattus norvegicus [6]): 98.9%

IC50 [8]: 0.1 µM
SMILES: CCc1ccc(S(=O)(=O)N[C@@H]2c3cc(NC(=O)c4cccc(OC)c4)ccc3C[C@H]2O)cc1
Inhibition [7]: >50%

IC50 [9]: 2 µM
SMILES: O=C1NCCN1CCN1CCC(c2cn(-c3ccc(F)cc3)c3ccc(Cl)cc23)CC1 [SERTINDOLE]

EC50 (Rattus norvegicus [5]): 19.3 µM
SMILES: CC1=Nc2ccc(Cl)cc2S(=O)(=O)N1 [DIAZOXIDE]
Insulin release (Rattus norvegicus [6]): 28.8%

IC50 (Cavia porcellus [11]): 2.1 µM
SMILES: CC(O)(C(=O)Nc1cccc2c1C(=O)c1sccc1CO2)C(F)(F)F (stereo not drawn)

IC50 [12]: 4.3 µM | IC50 [14]: 8.2 µM | IC50 [15]: 7.5 µM
SMILES: CNC(=S)NS(=O)(=O)c1cc(CCNC(=O)c2cc(Cl)ccc2OC)ccc1OC [CLAMIKALANT]
IC50 (Cavia porcellus [13]): 0.8 µM

IC50 [17]: 32 µM
SMILES: C1CCC(/N=C(\NC23CC4CC(CC(C4)C2)C3)N2CCOCC2)CC1

IC50 [21]: 0.018 µM
SMILES: N#C/N=C(\Nc1cccnc1)NC1(c2cccc(Cl)c2)CCC1

IC50 [12]: 0.22 µM | IC50 (Rattus norvegicus [23]): 0.0016 µM
SMILES: COc1ccc(Cl)cc1C(=O)NCCc1ccc(S(=O)(=O)NC(=O)NC2CCCCC2)cc1 [GLYBURIDE]
IC50 (Cavia porcellus [22]): 0.008 µM

IC50 (Cavia porcellus [11]): 2.5 µM
SMILES: C[C@](O)(C(=O)Nc1cccc2c1C(=O)c1sccc1CS2(=O)=O)C(F)(F)F

EC50 (Rattus norvegicus [5]): 2.3 µM
SMILES: CC(NC1=NS(=O)(=O)c2cc(Cl)cnc2N1)C(C)(C)C (stereo not drawn)
Insulin release (Rattus norvegicus [6]): 41.5%

IC50 (Cavia porcellus [26]): 0.54 µM
SMILES: Cc1c(-c2ccccc2F)[nH]c(N)c1C#N

IC50 [27]: 2 µM | IC50 [28]: 0.009 µM
SMILES: NC(=O)C(c1ccccc1)(c1ccc(F)cc1)c1ccccc1F (stereo not drawn)

IC50 [30]: ~2.9 µM | IC50 [8]: ~0.05 µM
SMILES: CCCCc1ccc(S(=O)(=O)N[C@@H]2c3cc(NC(=O)c4cccc(OC)c4)ccc3CC[C@H]2O)cc1

IC50 [32]: 0.352 µM
SMILES: COc1ccc(Cl)cc1[C@]1(F)C(=O)Nc2cc(C(F)(F)F)ccc21 [FLINDOKALNER]
